Three compounds from patent US9193729B2, “Inhibiting transient receptor potential ion channel TRPA1” (Cubist Pharmaceuticals, Inc., priority 2011, dated 2015) can be followed below.

The test system of data set [1] is formalin-induced pain behavior. As to the kind of experiment: Formalin-induced pain behavior in vivo rodent model. Also noted: species or system rat. The following applies: i.p. administration, in words. The text has this:
The data shown in Tables 3a, 3b, and 3c and FIG. 2 were obtained by administering a pharmaceutical composition comprising the compound of Formula (Ia) to rodents in the formalin-induced pain duration at various doses according to Example 5. Specifically, the data in Tables 3a, 3b, and 3c and FIG. 2 were obtained by intraperitoneal (i.p.) administration of compositions containing different concentrations of the compound of Formula (Ia), a comparator composition containing recited amounts of the comparator compound (e.g., 150 mg/kg of the comparator compound of Formula (II) in Table 3a) and a control composition containing the vehicle (e.g., without the compound of Formula (Ia) or a comparator compound).
The compound of Formula (Ia) and the comparator compounds of Formula (II) and Formula (III) were tested in the formalin-induced pain test reported by Dubuisson et al., Pain 1977 December; 4(2):161-74 (incorporated herein by reference in its entirety). Dubuisson et al. (1977) describe a method for assessing pain and analgesia in rats and cats. Briefly, dilute formalin (50 μL of 3% formalin) is injected into the plantar surface of the hind paw. […] The individual responsible for counting the pain behaviors in a particular study is blinded to the treatment groups.
Rats were treated with the HCl salt of Compound (Ia) at various doses (3, 10, 30, and 50 mg/kg, IP) or with the vehicle (IP).

Data set [2] has as its system serum biomarkers of hepatotoxicity. The experiment in a line: Hepatotoxicity serum biomarker study in dogs, oral dose. Type of data set: in vivo, dog. The note with it: for ALT level elevation: single PO dose of 50 mg/kg. As for the experimental part:
The compound of Formula (Ia) was orally dosed to […] at dose levels of 5, 15 or 50 mg/kg using 30% Sulfobutylether β-cyclodextrin as the vehicle for assessment of safety as measured via serum chemistry biomarkers of hepatotoxicity or bile duct injury FIG. 5A, showing measurements of alanine aminotranferease [ALT], aspartate aminotranferease [AST], alkaline phosphatase [ALP] and gamma-glutamyl transferase [GGT] in the dogs at each dose level (each bar represents a measurement from 1 dog in the study). […] For example, the ALT levels were elevated up to about 60-fold in male dogs and up to about 130-fold in female beagle dogs following a single PO dose of 50 mg/kg.

The subject of a further data set is female rats. As to the kind of experiment: 7-day i.p. repeat dose screening toxicity study. Type of data set: in vivo, rat. The following applies: rats, 50 mg/kg/day i.p. for 7 consecutive days. The method, then: The compound of Formula (Ia) was evaluated in a 7-day repeat dose screening toxicity study in female rats. In order to maximize systemic exposure, rats were administered compound of Formula (Ia) i.p. at 50 mg/kg/day for 7 consecutive days, to obtain the results shown in FIG. 6. Clinical chemistry parameters were evaluated on Days 3 and 8. Histopathology was performed on select organs including the liver, kidney, spleen, and lung.

The target of another data set is hERG (Homo sapiens, UniProt Q12809). As to the kind of experiment: Patch clamp selectivity, hERG. The following applies: same procedure as Example 3. Type of data set: cell-based. The method, then:
(§1) Data for TRPA1 inhibition and the selectivity of TRPA1 inhibition was obtained by this method for the compound of Formula (Ia) and included in Table 1 and Table 2. All currents were recorded in whole-cell configuration using EPC-9 and EPC-10 amplifiers and Patchmaster software (HEKA). […] The standard pipette solution consisted of 140 mM CsAsp, 10 mM EGTA, 10 mM HEPES, 2.27 mM MgCl2, 1.91 mM CaCl2, 4 mM MgATP, and 0.1-0.3 mM Na2GTP, with pH adjusted to 7.2 with CsOH. In addition, a solution containing 145 mM CsCl, 10 mM HEPES, 10 mM EGTA and 1 mM MgCl2 (pH 7.2 adjusted with CsOH) can be used. The standard bath solution contained 150 mM NaCl, 10 mM HEPES, 10 mM glucose, 4.5 mM KCl, 1 mM EGTA, 3 mM MgCl2, with pH adjusted to 7.4 with NaOH. In some instances, 2 mM CaCl2 was added in place of EGTA and the concentration of MgCl2 was reduced to 1 mM.
(§2) Data were collected either by continuous recordings at −60 mV or by applying voltage ramps from a holding potential of 0 mV every 4 s. […] Inward and outward currents were analyzed from the ramps at −80 and 80 mV, respectively. […]
(§3) Solutions were switched using a gravity-fed continuous focal perfusion system. […] Temperatures were confirmed using a thermistor (Warner Instruments, TA-29), with temperatures at the recorded cell estimated to be within +/−2° C. of those reported. […]

A further data set has as its target hNav1.2 (Homo sapiens, UniProt Q99250). As to the kind of experiment: Patch clamp selectivity, hNav1.2. Format: cell-based. The note with it: same procedure as Example 3; species not given; read-out: IC50 in Patch Clamp Assay, NaV1.2. The method, then: as §1, §2, §3
In the next data set the target is hTRPA1 (Homo sapiens, UniProt O75762). The experiment in a line: Whole-cell patch clamp inhibition of hTRPA1. The following applies: same procedure as Example 3; species not given; read-out: IC50 in Patch Clamp Assay, TRPA1. Format: cell-based. The method, then:
as §1, §2, §3

The target in the next data set is T1, hTRPV3 (Homo sapiens, UniProt Q8NET8).
T1 sequence (Q8NET8 1-790): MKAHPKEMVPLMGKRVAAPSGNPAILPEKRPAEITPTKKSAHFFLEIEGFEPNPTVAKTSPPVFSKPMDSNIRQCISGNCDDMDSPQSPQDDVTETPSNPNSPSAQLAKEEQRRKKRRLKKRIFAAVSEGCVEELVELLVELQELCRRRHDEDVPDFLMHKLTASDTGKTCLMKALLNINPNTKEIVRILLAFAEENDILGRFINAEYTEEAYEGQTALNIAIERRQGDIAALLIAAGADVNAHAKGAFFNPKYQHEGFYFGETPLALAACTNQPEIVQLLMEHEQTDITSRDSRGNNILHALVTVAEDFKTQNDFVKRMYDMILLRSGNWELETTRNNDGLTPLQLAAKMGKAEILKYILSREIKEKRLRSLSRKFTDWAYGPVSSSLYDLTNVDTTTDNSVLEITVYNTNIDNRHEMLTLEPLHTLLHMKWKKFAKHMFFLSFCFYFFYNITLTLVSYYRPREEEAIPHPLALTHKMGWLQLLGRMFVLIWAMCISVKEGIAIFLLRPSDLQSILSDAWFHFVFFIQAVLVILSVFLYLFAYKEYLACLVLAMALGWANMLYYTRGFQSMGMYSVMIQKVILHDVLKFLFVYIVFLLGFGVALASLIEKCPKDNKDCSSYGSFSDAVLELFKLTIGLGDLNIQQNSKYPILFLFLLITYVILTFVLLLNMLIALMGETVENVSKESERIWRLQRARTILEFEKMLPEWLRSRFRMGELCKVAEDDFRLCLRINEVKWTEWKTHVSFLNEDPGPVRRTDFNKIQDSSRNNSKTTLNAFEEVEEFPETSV
The experiment in a line: Patch clamp selectivity, hTRPV3. Type of data set: cell-based. The following applies: same procedure as Example 3; species not given; read-out: IC50 in Patch Clamp Assay, TrpV3. The method, then: as §1, §2, §3

Molecules are shown by their SMILES.

hERG, sequence (Q12809 whole entry): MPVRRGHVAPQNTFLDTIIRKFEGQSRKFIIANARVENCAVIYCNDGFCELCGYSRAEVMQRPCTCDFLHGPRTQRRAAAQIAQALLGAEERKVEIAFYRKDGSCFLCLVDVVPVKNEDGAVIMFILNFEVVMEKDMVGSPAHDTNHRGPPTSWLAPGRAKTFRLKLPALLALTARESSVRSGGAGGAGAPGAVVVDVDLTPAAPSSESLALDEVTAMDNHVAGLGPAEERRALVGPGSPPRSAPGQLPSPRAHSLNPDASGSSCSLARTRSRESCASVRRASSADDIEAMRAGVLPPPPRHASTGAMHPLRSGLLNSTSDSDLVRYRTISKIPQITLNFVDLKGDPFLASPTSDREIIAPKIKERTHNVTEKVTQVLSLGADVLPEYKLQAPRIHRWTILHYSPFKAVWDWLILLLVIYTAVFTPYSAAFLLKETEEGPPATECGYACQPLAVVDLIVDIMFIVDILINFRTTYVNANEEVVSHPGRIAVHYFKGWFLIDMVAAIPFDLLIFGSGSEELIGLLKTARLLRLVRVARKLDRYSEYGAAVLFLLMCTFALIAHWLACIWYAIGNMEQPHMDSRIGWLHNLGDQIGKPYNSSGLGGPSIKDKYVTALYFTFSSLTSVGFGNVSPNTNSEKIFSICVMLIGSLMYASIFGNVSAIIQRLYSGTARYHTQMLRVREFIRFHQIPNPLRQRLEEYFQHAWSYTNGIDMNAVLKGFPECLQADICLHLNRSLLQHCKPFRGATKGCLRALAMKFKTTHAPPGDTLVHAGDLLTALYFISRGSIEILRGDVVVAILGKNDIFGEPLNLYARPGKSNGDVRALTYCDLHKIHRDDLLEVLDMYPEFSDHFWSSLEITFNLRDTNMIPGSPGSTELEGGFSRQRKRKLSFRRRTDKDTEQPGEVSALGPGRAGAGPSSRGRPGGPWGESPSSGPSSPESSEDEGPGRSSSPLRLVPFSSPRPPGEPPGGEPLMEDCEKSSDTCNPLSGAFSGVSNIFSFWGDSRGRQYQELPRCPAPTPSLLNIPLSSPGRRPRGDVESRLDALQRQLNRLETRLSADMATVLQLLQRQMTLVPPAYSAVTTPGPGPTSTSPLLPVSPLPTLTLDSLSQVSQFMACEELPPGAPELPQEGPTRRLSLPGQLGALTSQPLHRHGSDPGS
hTRPA1, sequence (O75762 whole entry): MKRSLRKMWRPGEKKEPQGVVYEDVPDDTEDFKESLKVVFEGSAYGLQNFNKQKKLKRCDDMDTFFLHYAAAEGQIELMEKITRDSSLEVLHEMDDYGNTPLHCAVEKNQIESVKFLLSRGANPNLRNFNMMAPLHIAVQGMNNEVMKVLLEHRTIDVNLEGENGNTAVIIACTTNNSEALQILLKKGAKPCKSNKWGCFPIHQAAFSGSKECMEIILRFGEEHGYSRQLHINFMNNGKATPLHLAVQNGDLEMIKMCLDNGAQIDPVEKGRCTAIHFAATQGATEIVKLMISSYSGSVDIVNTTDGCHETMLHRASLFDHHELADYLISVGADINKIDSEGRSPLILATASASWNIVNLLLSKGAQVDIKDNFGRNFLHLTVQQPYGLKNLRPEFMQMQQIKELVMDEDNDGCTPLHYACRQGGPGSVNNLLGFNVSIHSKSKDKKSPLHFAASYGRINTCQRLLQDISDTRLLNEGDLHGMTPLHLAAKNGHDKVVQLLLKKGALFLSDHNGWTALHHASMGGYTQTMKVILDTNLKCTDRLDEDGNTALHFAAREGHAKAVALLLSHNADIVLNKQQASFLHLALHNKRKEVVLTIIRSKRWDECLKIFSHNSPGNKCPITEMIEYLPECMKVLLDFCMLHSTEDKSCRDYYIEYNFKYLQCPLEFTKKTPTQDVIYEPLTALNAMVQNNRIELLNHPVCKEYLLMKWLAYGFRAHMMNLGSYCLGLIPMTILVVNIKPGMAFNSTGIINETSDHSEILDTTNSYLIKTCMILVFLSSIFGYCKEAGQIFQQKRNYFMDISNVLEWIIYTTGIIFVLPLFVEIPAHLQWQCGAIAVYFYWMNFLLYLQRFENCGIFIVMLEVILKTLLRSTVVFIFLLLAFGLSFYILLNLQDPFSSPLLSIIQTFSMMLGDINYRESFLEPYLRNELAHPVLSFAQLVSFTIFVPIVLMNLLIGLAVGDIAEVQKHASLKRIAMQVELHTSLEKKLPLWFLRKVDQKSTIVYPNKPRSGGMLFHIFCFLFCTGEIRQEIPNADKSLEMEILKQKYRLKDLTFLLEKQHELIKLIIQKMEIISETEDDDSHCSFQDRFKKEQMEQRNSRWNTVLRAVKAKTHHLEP
hNav1.2, sequence (Q99250 whole entry): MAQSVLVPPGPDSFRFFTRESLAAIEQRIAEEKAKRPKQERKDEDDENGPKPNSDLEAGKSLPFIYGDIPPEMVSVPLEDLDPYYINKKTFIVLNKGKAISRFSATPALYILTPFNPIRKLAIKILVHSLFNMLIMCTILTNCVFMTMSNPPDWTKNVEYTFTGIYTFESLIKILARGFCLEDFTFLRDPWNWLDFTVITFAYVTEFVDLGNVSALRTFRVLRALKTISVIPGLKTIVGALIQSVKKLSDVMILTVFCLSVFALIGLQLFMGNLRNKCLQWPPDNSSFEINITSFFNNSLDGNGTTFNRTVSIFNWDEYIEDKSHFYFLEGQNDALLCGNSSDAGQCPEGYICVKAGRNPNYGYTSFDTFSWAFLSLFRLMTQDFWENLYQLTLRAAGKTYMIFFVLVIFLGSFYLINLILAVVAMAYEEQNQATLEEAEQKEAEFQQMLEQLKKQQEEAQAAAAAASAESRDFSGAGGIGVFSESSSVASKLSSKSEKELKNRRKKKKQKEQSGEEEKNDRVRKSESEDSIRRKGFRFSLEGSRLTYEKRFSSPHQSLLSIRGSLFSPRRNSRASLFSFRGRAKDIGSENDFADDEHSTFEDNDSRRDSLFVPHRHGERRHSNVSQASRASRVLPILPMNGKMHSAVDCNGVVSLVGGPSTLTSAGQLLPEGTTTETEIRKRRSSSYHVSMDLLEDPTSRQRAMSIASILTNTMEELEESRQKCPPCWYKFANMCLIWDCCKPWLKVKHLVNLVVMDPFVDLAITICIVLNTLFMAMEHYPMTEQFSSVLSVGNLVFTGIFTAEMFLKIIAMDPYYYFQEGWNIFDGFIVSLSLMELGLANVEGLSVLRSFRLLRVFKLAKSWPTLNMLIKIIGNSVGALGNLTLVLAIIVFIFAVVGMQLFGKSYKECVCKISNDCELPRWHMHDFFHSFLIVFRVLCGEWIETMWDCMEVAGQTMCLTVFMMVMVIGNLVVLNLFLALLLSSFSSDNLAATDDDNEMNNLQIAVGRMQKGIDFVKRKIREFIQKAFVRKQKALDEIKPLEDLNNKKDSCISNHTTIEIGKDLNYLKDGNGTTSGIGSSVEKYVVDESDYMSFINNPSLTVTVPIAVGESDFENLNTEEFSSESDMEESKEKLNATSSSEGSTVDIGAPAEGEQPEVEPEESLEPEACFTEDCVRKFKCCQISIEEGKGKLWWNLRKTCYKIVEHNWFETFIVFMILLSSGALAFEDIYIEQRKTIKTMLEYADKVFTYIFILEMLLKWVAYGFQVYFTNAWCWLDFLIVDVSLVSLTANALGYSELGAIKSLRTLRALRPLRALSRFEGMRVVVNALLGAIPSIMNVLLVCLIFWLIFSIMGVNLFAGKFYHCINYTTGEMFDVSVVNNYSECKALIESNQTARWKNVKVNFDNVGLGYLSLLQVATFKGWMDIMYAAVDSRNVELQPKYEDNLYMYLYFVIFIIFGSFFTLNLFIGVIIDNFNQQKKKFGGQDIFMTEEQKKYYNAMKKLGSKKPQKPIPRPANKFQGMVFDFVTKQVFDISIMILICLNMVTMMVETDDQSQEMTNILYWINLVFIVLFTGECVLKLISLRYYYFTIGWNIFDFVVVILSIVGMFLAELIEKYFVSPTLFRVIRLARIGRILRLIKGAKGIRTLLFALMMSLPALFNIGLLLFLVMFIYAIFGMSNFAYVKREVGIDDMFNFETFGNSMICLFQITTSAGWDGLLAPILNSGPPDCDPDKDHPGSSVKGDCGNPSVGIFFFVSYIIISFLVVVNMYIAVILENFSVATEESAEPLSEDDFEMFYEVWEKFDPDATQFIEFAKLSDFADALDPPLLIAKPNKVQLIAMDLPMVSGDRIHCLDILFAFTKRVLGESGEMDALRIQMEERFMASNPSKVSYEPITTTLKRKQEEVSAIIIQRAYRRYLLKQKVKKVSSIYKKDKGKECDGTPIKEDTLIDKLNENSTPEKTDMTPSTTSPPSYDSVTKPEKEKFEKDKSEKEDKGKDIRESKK

Turning to `CC(C)c1ccc(NC(=O)Cn2cnc3c2c(=O)n(C)c(=O)n3C)cc1` [Formula (II)], the “duration of pain behavior compared with vehicle” value in data set [1] is recorded as “shorter durations of pain behavior than those treated with the vehicle”.
As for `C[C@H]1CCCN1c1ccc(-c2csc(NC(=O)Cn3cnc4c3c(=O)n(C)c(=O)n4C)n2)cc1F` [Formula (III)], the “duration of pain behavior compared with vehicle” value in data set [1] is “shorter durations of pain behavior than those treated with the vehicle”. In addition, the “serum biomarkers of hepatotoxicity (ALT, AST, ALP, GGT)” value in data set [2] (dogs, 50 mg/kg PO) is “did elevate serum biomarkers of hepatotoxicity”. The ALT level elevation entry is “up to 130 fold” in data set [2] (female beagle dogs) and “up to 60 fold” in data set [2] (male dogs). Moreover, in the data set with female rats, the “serum biomarkers of hepatotoxicity” value is reported as “did elevate serum biomarkers of hepatotoxicity”.
`C[C@H]1CCCN1c1ncc(-c2cccc(NC(=O)Cn3cnc4[nH]c(=O)n(C)c(=O)c43)n2)cn1` [Formula (IV), reference compound]: the concentration for half-maximal inhibition (IC50) against hERG was over 20 µM; on hNav1.2, over 20 µM; at hTRPA1, 9.8 µM; on hTRPV3 it was over 10 µM.
